Measured values as given in ChEMBL document CHEMBL1201862, “PubChem BioAssay data set” (2004).
Activity calls are given as the source filed them.

Experiments:
Cytochrome P450 2C9 = Cytochrome P450 2C9 (Homo sapiens, UniProt P11712)
[1] = A cytotoxicity screen of small molecule inhibitors of the PhoP region in Salmonella typhi identified in the primary screen. [Related pubchem assays: 1850, 1864, 1985 ]; assay type: functional
[2] = A Cell Based Secondary Assay To Explore Cytotoxicity of Compounds that Sensitize Mycobacterium Tuberculosis to Beta-Lactam Antibiotics.; assay type: functional
[3] = biological target: T1, Heat shock factor protein 1 (Mus musculus, UniProt P38532); assay: inhibition of MG132-induced HSE-luciferase signal, confirmation, cell-based, NIH3T3, luminescence, dose retest (AID 2382); assay type: functional;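 also: NIH3T3 fibroblasts with HSF1-driven luciferase reporter stressed by proteasome inhibitor MG132; luminescence from HSF1-driven luciferase expression after 8 hours of MG132 stress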
T1 sequence (P38532 whole entry): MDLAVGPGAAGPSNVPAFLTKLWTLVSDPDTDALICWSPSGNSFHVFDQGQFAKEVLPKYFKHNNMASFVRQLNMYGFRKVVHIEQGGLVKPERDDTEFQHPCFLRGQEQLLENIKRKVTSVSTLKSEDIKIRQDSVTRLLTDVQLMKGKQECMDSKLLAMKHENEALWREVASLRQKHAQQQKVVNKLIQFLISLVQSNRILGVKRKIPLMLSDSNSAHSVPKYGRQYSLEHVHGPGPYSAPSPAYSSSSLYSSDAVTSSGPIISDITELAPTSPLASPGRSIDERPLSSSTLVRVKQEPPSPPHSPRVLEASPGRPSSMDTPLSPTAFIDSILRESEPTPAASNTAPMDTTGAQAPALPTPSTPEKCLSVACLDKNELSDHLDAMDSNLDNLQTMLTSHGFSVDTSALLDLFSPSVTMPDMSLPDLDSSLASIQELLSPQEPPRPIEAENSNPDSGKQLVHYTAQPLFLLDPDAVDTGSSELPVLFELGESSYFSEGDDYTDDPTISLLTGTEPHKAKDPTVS

Nonstructural protein 1 = Nonstructural protein 1 (Influenza A virus, UniProt Q194T2); assay type: functional, Influenza A virus (A/California/07/2009(H1N1))
Nonstructural protein 1, sequence (Q194T2 whole entry): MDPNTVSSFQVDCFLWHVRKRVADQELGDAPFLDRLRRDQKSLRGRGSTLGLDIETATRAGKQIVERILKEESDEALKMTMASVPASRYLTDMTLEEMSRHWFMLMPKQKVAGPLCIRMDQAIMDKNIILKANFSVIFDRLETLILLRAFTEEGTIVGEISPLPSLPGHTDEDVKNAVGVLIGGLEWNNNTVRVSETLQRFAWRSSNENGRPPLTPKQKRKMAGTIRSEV

[4] = biological target: T2, Polyadenylate-binding protein 1 (Homo sapiens, UniProt P11940); assay: PABP1 MLLE–PAM2 interaction inhibitors, dose response, miRNA deadenylation inhibitor project, biochemical, fluorescence polarization, Cy5-PAM2 peptide, secondary (AID 602260); assay type: functional; conditions: read-out: IC50_Mean
T2 sequence (P11940 whole entry): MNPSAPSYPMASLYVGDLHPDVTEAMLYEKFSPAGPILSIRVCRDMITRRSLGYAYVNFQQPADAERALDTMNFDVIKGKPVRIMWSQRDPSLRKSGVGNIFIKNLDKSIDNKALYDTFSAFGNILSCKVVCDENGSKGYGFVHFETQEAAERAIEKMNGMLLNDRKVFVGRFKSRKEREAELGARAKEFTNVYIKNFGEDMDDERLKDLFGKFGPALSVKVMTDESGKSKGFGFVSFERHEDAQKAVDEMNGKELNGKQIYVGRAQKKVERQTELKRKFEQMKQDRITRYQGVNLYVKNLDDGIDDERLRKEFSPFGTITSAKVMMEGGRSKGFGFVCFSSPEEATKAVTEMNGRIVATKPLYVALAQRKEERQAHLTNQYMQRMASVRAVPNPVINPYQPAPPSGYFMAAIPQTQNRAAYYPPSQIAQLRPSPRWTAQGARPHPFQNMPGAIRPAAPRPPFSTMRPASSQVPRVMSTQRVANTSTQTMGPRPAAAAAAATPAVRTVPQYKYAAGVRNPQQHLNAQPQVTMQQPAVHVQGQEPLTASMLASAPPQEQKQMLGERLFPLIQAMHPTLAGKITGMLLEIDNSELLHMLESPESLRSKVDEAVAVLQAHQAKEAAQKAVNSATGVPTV

[5] = biological target: T2, Polyadenylate-binding protein 1; assay: PABP1 MLLE–PAM2 binding inhibitor potency, dose response, biochemical, fluorescence polarization, FITC-PAM2 peptide (AID 602259); assay type: functional; conditions: read-out: IC50_Mean
Protein skinhead-1 = biological target: T3, Protein skinhead-1 (Caenorhabditis elegans, UniProt P34707); assay type: functional
T3 sequence (P34707 whole entry): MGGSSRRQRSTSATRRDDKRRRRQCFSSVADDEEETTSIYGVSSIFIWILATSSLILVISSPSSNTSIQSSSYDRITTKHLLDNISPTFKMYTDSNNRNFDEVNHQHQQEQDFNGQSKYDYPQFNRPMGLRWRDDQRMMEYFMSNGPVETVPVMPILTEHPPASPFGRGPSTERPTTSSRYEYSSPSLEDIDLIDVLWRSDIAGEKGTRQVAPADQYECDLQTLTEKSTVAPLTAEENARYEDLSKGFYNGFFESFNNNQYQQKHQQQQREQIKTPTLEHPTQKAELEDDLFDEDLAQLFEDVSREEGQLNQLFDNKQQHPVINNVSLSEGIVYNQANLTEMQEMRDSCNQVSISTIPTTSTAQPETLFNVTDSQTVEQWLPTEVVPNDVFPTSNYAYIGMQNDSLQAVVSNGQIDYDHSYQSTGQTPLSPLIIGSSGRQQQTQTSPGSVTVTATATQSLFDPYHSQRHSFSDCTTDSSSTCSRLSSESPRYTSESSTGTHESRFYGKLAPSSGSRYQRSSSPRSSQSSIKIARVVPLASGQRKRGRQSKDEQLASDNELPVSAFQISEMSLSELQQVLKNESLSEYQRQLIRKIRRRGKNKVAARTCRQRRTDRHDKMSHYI

[6] = biological target: T4, Ubiquitin-conjugating enzyme E2 N (Homo sapiens, UniProt P61088); assay type: functional;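 also: Dose-response confirmation in a TR-FRET assay detecting UBC13-driven polyubiquitin chain formation, inhibition measured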
T4 sequence (P61088 whole entry): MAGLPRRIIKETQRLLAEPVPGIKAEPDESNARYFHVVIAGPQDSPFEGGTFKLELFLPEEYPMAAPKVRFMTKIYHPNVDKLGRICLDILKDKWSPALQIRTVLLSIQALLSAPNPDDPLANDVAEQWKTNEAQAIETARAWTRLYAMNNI

[7] = biological target: T5, DNA repair protein RAD52 homolog (Homo sapiens, UniProt P43351); assay type: functional, biochemical
T5 sequence (P43351 whole entry): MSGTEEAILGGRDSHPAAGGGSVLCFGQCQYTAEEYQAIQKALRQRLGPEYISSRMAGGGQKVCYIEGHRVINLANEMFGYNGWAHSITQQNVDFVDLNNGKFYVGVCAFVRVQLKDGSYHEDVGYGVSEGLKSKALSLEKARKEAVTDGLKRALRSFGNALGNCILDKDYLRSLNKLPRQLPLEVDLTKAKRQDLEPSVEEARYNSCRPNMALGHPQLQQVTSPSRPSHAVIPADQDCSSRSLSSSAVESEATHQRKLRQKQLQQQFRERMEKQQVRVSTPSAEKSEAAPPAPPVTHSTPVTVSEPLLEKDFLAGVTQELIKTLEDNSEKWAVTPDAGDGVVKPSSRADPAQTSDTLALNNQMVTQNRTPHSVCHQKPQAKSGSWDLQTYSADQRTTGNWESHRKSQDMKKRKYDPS

Cytochrome P450 3A4 = Cytochrome P450 3A4 (Homo sapiens, UniProt P08684);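 also: CYP3A4 tested as one member of a cytochrome P450 panel screen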
Cytochrome P450 3A4, sequence (P08684 whole entry): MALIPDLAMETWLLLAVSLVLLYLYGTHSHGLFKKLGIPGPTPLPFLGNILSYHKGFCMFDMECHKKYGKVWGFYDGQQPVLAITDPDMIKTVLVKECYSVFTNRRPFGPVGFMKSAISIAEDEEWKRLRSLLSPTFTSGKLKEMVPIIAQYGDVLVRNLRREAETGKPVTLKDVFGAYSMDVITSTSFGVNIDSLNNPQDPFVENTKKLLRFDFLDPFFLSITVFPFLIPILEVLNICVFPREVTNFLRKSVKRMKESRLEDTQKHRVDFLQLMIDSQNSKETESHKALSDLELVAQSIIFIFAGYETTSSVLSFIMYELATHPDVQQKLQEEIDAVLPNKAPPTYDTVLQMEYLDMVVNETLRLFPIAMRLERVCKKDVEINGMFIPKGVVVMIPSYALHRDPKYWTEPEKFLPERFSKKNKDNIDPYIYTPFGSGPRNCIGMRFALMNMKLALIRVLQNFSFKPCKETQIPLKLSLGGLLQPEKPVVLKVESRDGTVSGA

Cytochrome P450 2C9, sequence (P11712 whole entry): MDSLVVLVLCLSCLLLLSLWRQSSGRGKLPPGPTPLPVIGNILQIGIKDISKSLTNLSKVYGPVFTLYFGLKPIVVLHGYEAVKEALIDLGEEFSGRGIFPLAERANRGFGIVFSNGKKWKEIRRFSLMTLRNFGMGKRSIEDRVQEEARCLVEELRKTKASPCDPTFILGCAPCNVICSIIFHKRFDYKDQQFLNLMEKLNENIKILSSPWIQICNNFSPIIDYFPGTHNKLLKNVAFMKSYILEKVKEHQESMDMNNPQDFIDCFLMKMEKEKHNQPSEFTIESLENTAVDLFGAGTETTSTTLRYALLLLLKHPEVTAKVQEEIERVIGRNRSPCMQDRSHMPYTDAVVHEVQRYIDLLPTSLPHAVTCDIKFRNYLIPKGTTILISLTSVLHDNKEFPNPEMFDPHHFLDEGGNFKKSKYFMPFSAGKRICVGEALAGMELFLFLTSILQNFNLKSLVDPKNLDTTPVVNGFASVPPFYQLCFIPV

Structure (SMILES): Nc1ncnc2c1ncn2[C@@H]1CCCO1
- AC50 (Cytochrome P450 2C9): inconclusive

Structure (SMILES): Cc1ccc(CN2C3=NCCN3c3ccccc32)cc1
- EC50 [1]: > 50 µM (active)

Structure (SMILES): O=C(Oc1c(-c2ccccc2Cl)oc2ccccc2c1=O)c1ccc(Cl)cc1
- CC50 [2]: > 40 µM (active)
- EC50 [3]: > 195 µM (not active)

Structure (SMILES): Cc1cc2cc(CN=C(S)Nc3ccc(OC(F)(F)F)cc3)ccc2n1C
- IC50 (Nonstructural protein 1): > 100 µM (active)
- IC50 [4]: > 66 µM (inactive)
- IC50 [5]: > 66 µM (inactive)
- IC50 (Protein skinhead-1): > 100 µM (inactive)

Structure (SMILES): Cc1ccc(CNC(=O)C2CC(c3ccccc3[N+](=O)[O-])=NO2)cc1 (stereo not drawn)
- AC50 (Cytochrome P450 2C9): inconclusive

Structure (SMILES): COc1ccccc1CNCCc1ccc(F)cc1
- EC50 [1]: > 50 µM (active)

Structure (SMILES): CN1CCC(CN)(N2CCN(c3ccccc3)CC2)CC1
- IC50 [6]: > 20 µM (inactive)
- IC50 (Nonstructural protein 1): > 100 µM (active)
- AC50 [7]: 23.1 µM (active)

Structure (SMILES): COc1ccc(OC)c(C(=O)CN2C(=O)NC(C)(c3ccccc3)C2=O)c1 (stereo not drawn)
- AC50 (Cytochrome P450 2C9): inconclusive

Structure (SMILES): CCOc1cccc(/C=N/Nc2nc(N3CCCC3)nc(N3CCCC3)n2)c1O
- CC50 [2]: > 40 µM (active)

Structure (SMILES): Cc1c(/C=N/NC(=O)c2ccc3c(c2)OCO3)cnn1C
- EC50 [1]: > 50 µM (active)
- AC50 (Cytochrome P450 3A4): 22.4 µM (inconclusive)

Structure (SMILES): O=C(/C=C/c1cccnc1)c1ccc(O)cc1
- CC50 [2]: 17.5 µM (active)
